Common to all, as to test: Inhibition Assay
Assay [1] addresses T1, Amine oxidase [flavin-containing] A (Homo sapiens, UniProt P21397).
T1 sequence (P21397 whole entry): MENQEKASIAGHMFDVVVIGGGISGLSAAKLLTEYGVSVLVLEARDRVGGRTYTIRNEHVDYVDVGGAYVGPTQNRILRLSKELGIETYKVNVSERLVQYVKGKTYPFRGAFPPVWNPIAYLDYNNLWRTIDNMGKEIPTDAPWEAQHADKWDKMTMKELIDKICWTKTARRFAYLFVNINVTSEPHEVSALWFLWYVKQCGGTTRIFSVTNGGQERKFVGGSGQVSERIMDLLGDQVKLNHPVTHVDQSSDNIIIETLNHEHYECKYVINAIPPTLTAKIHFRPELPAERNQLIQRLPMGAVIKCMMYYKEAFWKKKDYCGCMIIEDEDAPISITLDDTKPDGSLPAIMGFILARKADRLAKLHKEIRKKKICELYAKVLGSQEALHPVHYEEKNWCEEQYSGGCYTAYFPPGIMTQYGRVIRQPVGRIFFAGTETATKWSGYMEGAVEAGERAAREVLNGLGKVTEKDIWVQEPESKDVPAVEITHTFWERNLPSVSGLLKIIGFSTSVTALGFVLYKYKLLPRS
The text has this:
(§1) Competitive inhibition assay using human and rat MAOs.

Assay [2] has as its target T2, Amine oxidase [flavin-containing] A (Rattus norvegicus, UniProt P21396).
T2 sequence (P21396 whole entry): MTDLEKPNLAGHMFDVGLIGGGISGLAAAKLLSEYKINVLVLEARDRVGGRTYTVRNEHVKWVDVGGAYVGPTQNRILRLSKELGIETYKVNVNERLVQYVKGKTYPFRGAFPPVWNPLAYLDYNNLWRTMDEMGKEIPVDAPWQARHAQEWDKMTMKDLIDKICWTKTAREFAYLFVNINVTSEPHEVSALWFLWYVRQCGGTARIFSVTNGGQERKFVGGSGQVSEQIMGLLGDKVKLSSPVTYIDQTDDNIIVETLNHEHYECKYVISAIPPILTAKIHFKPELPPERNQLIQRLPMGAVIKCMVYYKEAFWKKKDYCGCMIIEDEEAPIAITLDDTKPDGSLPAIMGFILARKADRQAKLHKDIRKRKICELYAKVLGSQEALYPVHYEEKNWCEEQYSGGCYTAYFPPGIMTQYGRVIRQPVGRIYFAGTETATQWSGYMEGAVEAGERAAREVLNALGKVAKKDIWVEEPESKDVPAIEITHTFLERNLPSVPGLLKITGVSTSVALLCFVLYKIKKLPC
Description: as §1

Assay [3] addresses T3, Amine oxidase [flavin-containing] B (Homo sapiens, UniProt P27338).
T3 sequence (P27338 whole entry): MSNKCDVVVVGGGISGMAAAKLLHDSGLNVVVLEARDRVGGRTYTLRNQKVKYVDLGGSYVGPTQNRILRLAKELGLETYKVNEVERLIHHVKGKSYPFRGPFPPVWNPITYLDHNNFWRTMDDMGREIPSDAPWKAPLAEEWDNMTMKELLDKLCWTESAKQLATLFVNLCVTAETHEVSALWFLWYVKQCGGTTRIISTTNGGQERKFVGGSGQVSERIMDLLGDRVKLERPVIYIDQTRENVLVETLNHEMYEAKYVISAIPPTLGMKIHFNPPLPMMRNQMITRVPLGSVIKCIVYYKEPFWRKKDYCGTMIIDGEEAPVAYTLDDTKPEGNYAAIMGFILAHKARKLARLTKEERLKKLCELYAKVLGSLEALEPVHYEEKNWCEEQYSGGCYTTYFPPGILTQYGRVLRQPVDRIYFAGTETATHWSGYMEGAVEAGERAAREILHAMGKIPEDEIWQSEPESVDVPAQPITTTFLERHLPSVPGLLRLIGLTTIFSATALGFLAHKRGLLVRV
Description: as §1

Assay [4] has as its target T4, Amine oxidase [flavin-containing] B (Rattus norvegicus, UniProt P19643).
T4 sequence (P19643 whole entry): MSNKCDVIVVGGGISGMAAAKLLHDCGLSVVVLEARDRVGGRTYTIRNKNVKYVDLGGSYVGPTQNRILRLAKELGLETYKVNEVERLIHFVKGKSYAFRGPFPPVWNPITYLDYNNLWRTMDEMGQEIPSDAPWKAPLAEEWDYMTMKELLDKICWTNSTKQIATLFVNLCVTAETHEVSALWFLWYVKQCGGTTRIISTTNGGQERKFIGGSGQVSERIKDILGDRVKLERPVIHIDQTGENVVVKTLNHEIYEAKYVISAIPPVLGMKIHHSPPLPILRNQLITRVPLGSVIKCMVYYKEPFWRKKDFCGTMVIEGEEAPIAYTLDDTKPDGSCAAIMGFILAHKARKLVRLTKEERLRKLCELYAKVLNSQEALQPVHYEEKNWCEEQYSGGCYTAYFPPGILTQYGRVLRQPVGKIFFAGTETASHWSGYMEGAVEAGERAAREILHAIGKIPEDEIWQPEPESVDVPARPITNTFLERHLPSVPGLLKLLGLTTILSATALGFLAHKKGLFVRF
Description: as §1

Molecules are shown by their SMILES.

As to `C#CCN(C)Cc1ccc(CC(=O)NC2CC(C)(C)N(O)C(C)(C)C2)cc1` [ParSL], the Ki in assay [1] stood at 212 µM; in assay [2], 151 µM; in assay [3] it was 22 µM; in assay [4], 107 µM.

For orientation: Ki means the dissociation constant of the complex between target and ligand, obtained from inhibition or displacement. Low values mean a stronger hold on the target, high ones a looser hold on the target.

Values taken from BindingDB's records for doi:10.1021/bi7019707 (Emory University, 2008).
